The results in this text go back to ChEMBL document CHEMBL5465560, “Selectivity Literature for EUbOPEN Chemogenomic Library” (2024).

The target of assay [1] is LIM domain kinase 1 (Homo sapiens) (UniProt P53667). Description: Selectivity interaction (Upstate Kinase Profiler service (Millipore)) EUB0000056c LIMK1. To be noted: at 1 µM.
Assay [2] deals with Tyrosine-protein kinase ABL1 (Homo sapiens), P00519 [E255K]. Kind of assay: (§1) Selectivity interaction (Ambit KINOMEscan and KiNATiv profiling in Jurkat cells) EUB0000090b ABL1. Type of assay: cell-based. To be noted: at 1 µM.
In assay [3] the test system is Tyrosine-protein kinase ABL1 (Homo sapiens), P00519 [F317I]. The assay is described as §1. Type of assay: cell-based. To be noted: at 1 µM.
In assay [4] the test system is Tyrosine-protein kinase ABL1 (Homo sapiens), P00519 [F317L]. The assay is described as §1. The class given is cell-based. To be noted: at 1 µM.
Assay [5] concerns Tyrosine-protein kinase ABL1 (Homo sapiens), P00519 [H396P]. Described as §1. To be noted: at 1 µM. Type of assay: cell-based.
The test system of assay [6] is Tyrosine-protein kinase ABL1 (Homo sapiens), P00519 [M351T]. The description is as §1. To be noted: at 1 µM. Type of assay: cell-based.
Assay [7] relates to Tyrosine-protein kinase ABL1 (Homo sapiens), P00519 [Q252H]. The description is as §1. The class given is cell-based. To be noted: at 1 µM.
In assay [8] the test system is Tyrosine-protein kinase ABL1 (Homo sapiens), P00519 [T315I]. The description is as §1. Particulars: at 1 µM. The class given is cell-based.
Assay [9] deals with Tyrosine-protein kinase ABL1 (Homo sapiens), P00519 [Y253F]. The description is as §1. To be noted: at 1 µM. The class given is cell-based.
In assay [10] the target is Tyrosine-protein kinase ABL1 (Homo sapiens, UniProt P00519). The description is as §1. The class given is cell-based. Particulars: at 1 µM.
Assay [11] has as its target T1, Activin receptor type-1 (Homo sapiens) (UniProt Q04771).
T1 sequence (whole entry): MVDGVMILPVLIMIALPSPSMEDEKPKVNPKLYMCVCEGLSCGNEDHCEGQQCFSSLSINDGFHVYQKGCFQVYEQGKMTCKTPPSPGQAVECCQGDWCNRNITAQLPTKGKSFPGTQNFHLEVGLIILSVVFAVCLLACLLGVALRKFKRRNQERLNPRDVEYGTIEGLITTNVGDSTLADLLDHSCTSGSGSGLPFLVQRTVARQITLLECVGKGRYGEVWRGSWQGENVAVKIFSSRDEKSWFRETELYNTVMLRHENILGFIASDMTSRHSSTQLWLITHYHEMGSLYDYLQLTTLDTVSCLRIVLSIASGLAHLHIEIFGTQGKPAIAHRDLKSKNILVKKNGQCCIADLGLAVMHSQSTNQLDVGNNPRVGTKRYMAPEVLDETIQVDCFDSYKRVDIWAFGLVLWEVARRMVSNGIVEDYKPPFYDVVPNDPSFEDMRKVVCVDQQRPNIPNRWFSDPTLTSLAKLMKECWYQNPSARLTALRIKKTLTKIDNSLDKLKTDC
Kind of assay: Selectivity interaction (KinomeScan (DiscoverX)) EUB0001079a ACVR1. Particulars: at 1 µM.

Assay [12] has as its target Sigma non-opioid intracellular receptor 1 (Homo sapiens) (UniProt Q99720). Description: Selectivity interaction (GPCR panel (PDSP screen)) EUB0001079a SIGMAR1. To be noted: at 10 µM.
The subject of assay [13] is Tyrosine-protein kinase ABL1 (Homo sapiens), P00519 [Q252H]. Description: Selectivity interaction (KinomeScan (DiscoverX)) EUB0000092b ABL1. To be noted: at 10 µM.
A short description of assay [14]: Selectivity interaction (KinomeScan (DiscoverX)) EUB0000695a CDPK1. To be noted: at 100 nM.
Assay [15] deals with T2, Serine/threonine-protein kinase Nek2 (Homo sapiens) (UniProt P51955).
T2 sequence (whole entry): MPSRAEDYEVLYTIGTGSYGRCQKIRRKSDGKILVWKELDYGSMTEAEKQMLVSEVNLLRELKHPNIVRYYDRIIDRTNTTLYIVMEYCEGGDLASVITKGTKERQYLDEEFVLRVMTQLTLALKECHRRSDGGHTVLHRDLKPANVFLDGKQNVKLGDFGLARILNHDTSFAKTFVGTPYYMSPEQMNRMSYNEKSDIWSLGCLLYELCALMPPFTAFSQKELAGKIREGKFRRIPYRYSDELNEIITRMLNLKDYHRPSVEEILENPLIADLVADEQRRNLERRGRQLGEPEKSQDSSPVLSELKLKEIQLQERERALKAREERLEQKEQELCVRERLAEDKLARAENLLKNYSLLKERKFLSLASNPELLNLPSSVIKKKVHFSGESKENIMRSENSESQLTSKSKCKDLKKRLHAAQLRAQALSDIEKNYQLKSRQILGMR
Description: Selectivity interaction (KinomeScan (DiscoverX)) EUB0000695a NEK2. Particulars: at 100 nM.

Assay [16] concerns the target T3, Serine/threonine-protein kinase BRSK1 (Homo sapiens) (UniProt Q8TDC3).
T3 sequence (whole entry): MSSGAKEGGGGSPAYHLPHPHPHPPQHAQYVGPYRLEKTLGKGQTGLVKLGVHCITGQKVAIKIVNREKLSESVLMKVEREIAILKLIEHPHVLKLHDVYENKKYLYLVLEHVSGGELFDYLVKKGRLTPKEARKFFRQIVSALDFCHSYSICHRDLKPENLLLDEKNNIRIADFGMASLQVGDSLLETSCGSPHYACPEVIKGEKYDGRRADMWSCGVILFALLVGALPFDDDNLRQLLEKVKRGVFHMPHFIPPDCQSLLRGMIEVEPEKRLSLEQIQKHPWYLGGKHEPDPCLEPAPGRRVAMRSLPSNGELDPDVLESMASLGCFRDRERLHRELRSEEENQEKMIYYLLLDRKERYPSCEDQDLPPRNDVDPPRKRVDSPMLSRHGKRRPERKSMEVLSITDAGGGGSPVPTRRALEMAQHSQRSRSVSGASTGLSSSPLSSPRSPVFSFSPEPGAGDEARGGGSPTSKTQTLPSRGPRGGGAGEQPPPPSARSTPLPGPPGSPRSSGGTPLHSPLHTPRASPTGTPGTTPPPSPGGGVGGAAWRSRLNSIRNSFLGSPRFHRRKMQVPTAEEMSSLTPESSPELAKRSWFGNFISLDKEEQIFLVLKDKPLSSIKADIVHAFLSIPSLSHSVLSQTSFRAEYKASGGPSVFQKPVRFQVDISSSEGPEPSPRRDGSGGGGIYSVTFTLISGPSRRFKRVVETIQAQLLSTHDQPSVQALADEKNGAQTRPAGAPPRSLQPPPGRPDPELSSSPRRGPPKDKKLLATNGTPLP
Description: Selectivity interaction (Kinase screening (Nanosyn)) EUB0000604a BRSK1.

In assay [17] the target is Non-receptor tyrosine-protein kinase TYK2 (Homo sapiens, UniProt P29597). Description: Selectivity interaction (KinomeScan (DiscoverX)) EUB0000045b TYK2. To be noted: at 10 µM.
Non-receptor tyrosine-protein kinase TYK2, sequence (P29597 whole entry): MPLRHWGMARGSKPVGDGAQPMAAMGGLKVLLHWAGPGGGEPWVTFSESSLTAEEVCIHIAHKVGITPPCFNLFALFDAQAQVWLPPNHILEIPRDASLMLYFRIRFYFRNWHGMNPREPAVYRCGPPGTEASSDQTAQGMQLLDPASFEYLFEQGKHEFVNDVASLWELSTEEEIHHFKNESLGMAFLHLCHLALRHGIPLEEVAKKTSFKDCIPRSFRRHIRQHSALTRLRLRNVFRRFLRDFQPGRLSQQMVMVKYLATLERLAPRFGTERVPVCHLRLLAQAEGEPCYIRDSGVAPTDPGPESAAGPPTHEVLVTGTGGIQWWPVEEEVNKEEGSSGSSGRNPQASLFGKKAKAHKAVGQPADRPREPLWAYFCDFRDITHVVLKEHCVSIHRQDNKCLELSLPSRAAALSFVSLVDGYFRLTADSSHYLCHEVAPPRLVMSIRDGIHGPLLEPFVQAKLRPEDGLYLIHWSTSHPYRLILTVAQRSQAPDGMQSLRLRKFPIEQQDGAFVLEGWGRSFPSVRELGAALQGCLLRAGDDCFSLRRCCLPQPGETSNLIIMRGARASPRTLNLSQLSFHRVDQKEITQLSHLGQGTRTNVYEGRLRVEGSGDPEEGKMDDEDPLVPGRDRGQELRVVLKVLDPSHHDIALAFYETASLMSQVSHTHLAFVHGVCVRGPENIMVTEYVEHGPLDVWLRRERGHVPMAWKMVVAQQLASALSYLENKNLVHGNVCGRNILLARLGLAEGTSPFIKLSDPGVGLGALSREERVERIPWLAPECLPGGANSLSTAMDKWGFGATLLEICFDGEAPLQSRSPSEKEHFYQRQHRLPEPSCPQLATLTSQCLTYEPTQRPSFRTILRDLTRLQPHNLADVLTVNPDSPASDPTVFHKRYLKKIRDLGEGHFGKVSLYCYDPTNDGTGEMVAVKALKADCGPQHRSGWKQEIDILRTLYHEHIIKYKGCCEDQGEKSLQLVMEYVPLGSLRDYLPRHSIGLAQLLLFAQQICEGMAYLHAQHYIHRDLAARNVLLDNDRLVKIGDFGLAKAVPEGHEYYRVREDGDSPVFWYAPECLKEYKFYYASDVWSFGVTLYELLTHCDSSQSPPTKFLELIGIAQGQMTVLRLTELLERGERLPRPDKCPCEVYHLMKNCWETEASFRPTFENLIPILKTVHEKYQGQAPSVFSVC
The target in assay [18] is CDK9/cyclin T1 (Homo sapiens) (UniProt O60563+P50750). Kind of assay: Selectivity interaction (Kinase panel (Invitrogen)) EUB0000639a CDK9. Type of assay: protein-complex assay. Particulars: at 200 nM.
For assay [19], the target named is Receptor-interacting serine/threonine-protein kinase 3 (Homo sapiens) (UniProt Q9Y572). Kind of assay: Selectivity interaction (ActivX KiNativ screen (kinase selectivity in THP-1 cell lysates)) EUB0000639a RIPK3. Particulars: lysate. Type of assay: subcellular.
Receptor-interacting serine/threonine-protein kinase 3 (Homo sapiens), sequence (Q9Y572 whole entry, looked up): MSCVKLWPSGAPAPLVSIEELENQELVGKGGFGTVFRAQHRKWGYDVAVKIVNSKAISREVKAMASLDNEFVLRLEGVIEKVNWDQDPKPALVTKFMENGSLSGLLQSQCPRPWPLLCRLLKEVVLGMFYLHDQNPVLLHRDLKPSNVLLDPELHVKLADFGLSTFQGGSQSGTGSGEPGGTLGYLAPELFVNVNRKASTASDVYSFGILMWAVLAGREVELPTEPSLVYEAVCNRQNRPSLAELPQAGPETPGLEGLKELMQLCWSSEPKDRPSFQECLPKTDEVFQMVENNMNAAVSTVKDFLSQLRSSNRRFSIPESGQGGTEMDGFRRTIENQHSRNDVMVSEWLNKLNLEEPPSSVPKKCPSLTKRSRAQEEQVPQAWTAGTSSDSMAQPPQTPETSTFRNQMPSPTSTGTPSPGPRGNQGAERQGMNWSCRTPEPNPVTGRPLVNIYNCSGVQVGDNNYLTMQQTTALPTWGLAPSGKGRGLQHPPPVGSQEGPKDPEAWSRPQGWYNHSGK
Assay [20] concerns the target Mitogen-activated protein kinase 10 (Homo sapiens, UniProt P53779). Description: Selectivity interaction (KinomeScan (DiscoverX)) EUB0000595a MAPK10. Particulars: at 10 µM.
The target of assay [21] is Casein kinase II subunit alpha' (Homo sapiens) (UniProt P19784). Description: Selectivity interaction (Kinase panel (literature)) EUB0001199aCl CSNK2A2. To be noted: at 1 µM.
Casein kinase II subunit alpha' (Homo sapiens), sequence (P19784 whole entry, looked up): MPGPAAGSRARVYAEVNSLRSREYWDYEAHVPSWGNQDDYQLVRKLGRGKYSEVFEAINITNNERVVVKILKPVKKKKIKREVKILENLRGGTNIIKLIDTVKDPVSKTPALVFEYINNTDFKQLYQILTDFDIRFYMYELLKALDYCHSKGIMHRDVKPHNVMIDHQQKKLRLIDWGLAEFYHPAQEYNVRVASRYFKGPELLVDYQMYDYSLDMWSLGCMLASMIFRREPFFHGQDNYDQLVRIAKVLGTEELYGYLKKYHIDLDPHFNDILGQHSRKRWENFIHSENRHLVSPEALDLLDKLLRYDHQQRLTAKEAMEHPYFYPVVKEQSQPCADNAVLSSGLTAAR

Mitogen-activated protein kinase 10, sequence (P53779 whole entry): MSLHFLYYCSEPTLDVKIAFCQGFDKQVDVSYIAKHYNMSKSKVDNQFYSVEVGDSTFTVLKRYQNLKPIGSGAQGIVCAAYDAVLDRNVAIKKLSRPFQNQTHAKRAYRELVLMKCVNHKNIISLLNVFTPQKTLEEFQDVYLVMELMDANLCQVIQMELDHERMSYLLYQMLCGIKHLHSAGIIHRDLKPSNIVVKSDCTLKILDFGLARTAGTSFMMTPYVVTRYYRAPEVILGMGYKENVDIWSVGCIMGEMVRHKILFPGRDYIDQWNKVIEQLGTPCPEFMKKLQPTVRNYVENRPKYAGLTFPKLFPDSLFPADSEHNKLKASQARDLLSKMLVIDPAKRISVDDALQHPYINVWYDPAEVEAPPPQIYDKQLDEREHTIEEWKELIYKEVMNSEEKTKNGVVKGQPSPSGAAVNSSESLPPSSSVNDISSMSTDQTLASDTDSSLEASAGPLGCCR
LIM domain kinase 1 (Homo sapiens), sequence (P53667 whole entry, looked up, the tested form may be a part): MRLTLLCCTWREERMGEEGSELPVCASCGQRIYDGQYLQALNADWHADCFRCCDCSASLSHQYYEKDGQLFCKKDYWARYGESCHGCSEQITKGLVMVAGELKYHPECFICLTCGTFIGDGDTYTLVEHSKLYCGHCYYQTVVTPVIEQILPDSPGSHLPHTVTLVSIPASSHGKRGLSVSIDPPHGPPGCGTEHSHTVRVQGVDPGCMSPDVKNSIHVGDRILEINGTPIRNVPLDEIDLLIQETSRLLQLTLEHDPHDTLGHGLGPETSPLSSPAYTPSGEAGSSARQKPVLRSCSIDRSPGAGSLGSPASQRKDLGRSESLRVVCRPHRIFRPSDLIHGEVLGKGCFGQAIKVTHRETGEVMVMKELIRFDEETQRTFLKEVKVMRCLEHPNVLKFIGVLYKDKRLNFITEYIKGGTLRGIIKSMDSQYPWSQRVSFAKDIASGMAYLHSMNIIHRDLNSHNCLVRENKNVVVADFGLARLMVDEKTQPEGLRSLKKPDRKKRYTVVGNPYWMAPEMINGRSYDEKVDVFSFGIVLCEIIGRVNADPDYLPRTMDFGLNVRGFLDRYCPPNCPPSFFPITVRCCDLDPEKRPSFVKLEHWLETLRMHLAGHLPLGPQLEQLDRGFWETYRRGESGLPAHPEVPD
Sigma non-opioid intracellular receptor 1 (Homo sapiens), sequence (Q99720 whole entry): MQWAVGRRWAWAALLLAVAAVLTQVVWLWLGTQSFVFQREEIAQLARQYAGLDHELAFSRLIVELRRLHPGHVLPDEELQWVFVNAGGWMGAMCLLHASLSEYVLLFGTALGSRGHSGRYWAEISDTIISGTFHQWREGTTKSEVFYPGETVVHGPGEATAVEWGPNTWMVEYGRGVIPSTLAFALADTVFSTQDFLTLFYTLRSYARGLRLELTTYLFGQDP

With `Cc1ccc(-c2ccc3c(ccc4sc5c(c43)NC[C@@H](C)NC5=O)n2)cn1`, the % of inhibition in assay [1] stood at 4%.

As to `CN(C)C/C=C/C(=O)Nc1ccc(C(=O)N2CCCC(Nc3ncc(Cl)c(-c4c[nH]c5ccccc45)n3)C2)cc1` (stereo not given), the % of control in assay [2] was 45%; in assay [3], 100%; in assay [4], 91%; in [5] it was 95%; in [6], 88%; in assay [7], 58%. Also, the % of control in [8] worked out at 99%; in [9], 92%; in assay [10], 94%.

Consider `Nc1cnc(N2CCc3cc(S(=O)(=O)Nc4c(F)cc(Cl)cc4F)cc(N4CCCC4=O)c32)nc1` [TP-020n], for which the % of control in assay [11] was 100%. Moreover, the % of inhibition in [12] is -14.4%.

In turn, `CCC(=O)N1CCN(c2ccc(-n3c(=O)ccc4cnc5ccc(-c6cnc7ccccc7c6)cc5c43)cc2C(F)(F)F)CC1` showed a % of control in assay [13] of 99%.

On to `Cc1cc(F)c(C(=O)Nc2cccc(-c3nncn3C(C)C)n2)cc1-n1cnc(C2CC2)c1`, for which the % of control in [14] and in assay [15] was 100% in each case.

Turning to `Cc1cnc(Nc2ccc(F)cc2Cl)nc1-c1c[nH]c(C(=O)N[C@H](CO)c2cccc(Cl)c2)c1`, the % of inhibition in assay [16] amounted to 0%.

`C=CC(=O)Nc1cc(-n2c(=O)ccc3cnc4ccc(-c5ccc(NS(C)(=O)=O)cc5)cc4c32)ccc1C` had a % of control in assay [17] of 100%.

Regarding `CC[C@@H]1[C@H](F)C(=O)N[C@@H]1COc1nccc2cc(C(N)=O)c(OC)cc12` [ZIMLOVISERTIB], the % of inhibition is 3.66% in assay [18]; 3% in assay [19] (at 0.01 µM); -0.8% in [19] (at 0.04 µM); -4.3% in assay [19] (at 0.2 µM); 8.9% in [19] (at 1 µM); -8.6% in assay [19] (at 5 µM).

In assay [20], `COCC(=O)NC/C=C/c1ccc2ncnc(Nc3ccc(Oc4ccc(C)nc4)c(C)c3)c2c1` [CP-724714] had a % of control of 68%.

Turning to `CN1Cc2nccc(-c3cn(C)nc3-c3ccc(F)cc3)c2C1=O`, in [21], the % of inhibition was found to be 2%.
